How the values were obtained:
[1] = target: T1, p53 (serine-15 phosphorylation) (Homo sapiens, UniProt P04637); assay: Western blotting for total p53 and phospho serine-15 p53 in peptide-treated HEK 293 cells; format: cell-based; details: HEK 293, TAT-PTD alone 50-100 μM
T1 construct: HEK 293 (p53^+/+) cells; endogenous in cells; host or cells: HEK 293
Protocol: P44 peptide controls the activity of cell cycle regulatory proteins: The minimal dose of P44 peptide that was functionally effective in activating p53 was evaluated by incubating HEK 293 cells with varying concentrations of P44 peptide (1-100 μM) (FIG. 3A) and after 12 h of incubation, protein lysates were prepared and processed for immunoblotting with total p53 (DO-1) and p53 ser-15 phospho-specific antibodies. […] However, there was a 4.5-fold increase in the expression of phosphorylated p53 (pSerine-15 p53) in P44 peptide-treated cells (FIG. 3A, lanes 2-6). To exclude the possibility that p53 activation is an effect of the protein transduction domain of HIV-1 TAT protein, similar set of experiment was performed using TAT-PTD peptide alone (consisting of only the 11-mer TAT-sequence). […] This observation reconfirmed that the RS domain (288-350 aa) of SMAR1 could exclusively activate p53 by mediating its phosphorylation specifically at serine-15 residue. Serine-15 phosphorylation of p53 is associated with its increased transcription efficiency, decreased affinity for MDM2, and its increased nuclear retention. One of the target genes activated by p53 is p21, an inhibitor of a subset of the cyclin-dependent kinases including cdc-2 (Sherr, C. J., and Roberts, J. M. (1999) Genes Dev. 13, 1501-1512). To evaluate the significance of peptide-mediated p53 activation, P44 peptide-treated lysates were further checked for tyrosine 15 phosphorylation of cdc2. […] HEK 293 cells were treated with SM peptide and checked for p53 as well as pcdc-2 levels.
Serine 347 residue of SMAR1: critical for mediating the effects of full-length SMAR1: Once it was established that the serine motif (SSSSYS) plays a pivotal role in SMAR1-mediated p53 activation, it got necessary to identify the serine residue within this motif that might be necessary in mediating these effects. To identify the critical serine residue within P44 peptide, various point-mutant peptides were custom synthesized, that varied with respect to the position of serine residue that was mutated (Table 1). To evaluate the functionality of mutant chimeric TAT-SMAR1 peptides [PS347A, PS348A, PS349A, PS350A and RS mutant (SM)] in comparison to the TAT-SMAR1 WT peptide (P44), HEK 293 cells were treated with 10 μM concentration of either of the peptides and protein lysates were prepared after 12 h incubation period. The lysates were then processed for immunoblotting with pSer-15 p53 and pcdc-2 antibodies. […] However, this was not the case with other mutated peptides. When the alanine was replaced back to serine at the 347 residue (FIG. 4A, lanes 3-5), the functionality of the peptide was restored as observed with increase in pcdc-2 levels. […] However, in case of SM (where serine residues from 347-350 were replaced by alanines) treated cells (FIG. 4A, lane 7), there was no difference in the pSer-15 p53 as well as pcdc-2 levels compared to either untreated or PS347A treated cells (FIG. 4A, lanes 1 and 2, respectively).
FIG. 3. P44 peptide activates p53-mediated cell cycle pathway. A, HEK 293 cells were seeded at a density of 5×10^5 and after 24 h, was incubated with increasing concentrations of the TAT-SMAR1 WT (P44) peptide. Protein lysates were prepared and then immunoblotted with antibodies to total p53, phospho serine-15. B, The same set of experiment was repeated with TAT PTD peptide representing the PTD carrier sequence alone and immunoblotted with phospho serine-15, in comparison of P44 treated cells. C, The status of phospho cdc-2 was further analyzed in P44 peptide treated cells. Total […] was used as an internal control. D, The same set of experiments were again repeated using TAT-SMAR1 RS mutant (SM) peptide and whole cell lysates were probed for phospho p53 serine-15 and pcdc-2 antibodies. […] was used as a loading control.
FIG. 4. Serine 347 residue of SMAR1 mediates p53 activation and stabilization. […]

[2] = tested on: tumor vasculature of B16F1-induced tumors; assay: Hematoxylin and eosin histopathology of B16F1-induced tumors; format: in vivo, mouse; details: tumors excised from treated mice
Source text: (§1) Histopathological changes in the subcutaneous tumors: To analyze the tumor vasculature of TAT PTD, SM treated and P44 treated mice, the tumor sections were stained with HE. […] In SM treated tumors, due to compressed vessels, the shape of RBCs were also distorted (FIG. 7A, lower right panel, arrow marked). […] The presence of hypoxic cells is a hallmark of cancer (Brown, J. M., and Wilson, W. R. (2004) Nat. Rev. Cancer 4, 437-447; Minchinton, A. I., and Tannock, I. F. (2006) Nat. Rev. Cancer 6, 583-592). Cellular responses to hypoxia are triggered by the hypoxia inducible factor-1 alpha (HIF-1α) that is known to restore tissue homeostasis in hypoxic conditions (Semenza, G. L. (2000) Genes Dev. 14, 1983-1991). To determine the status of HIF-1α expression, immunohistochemical analysis was performed on tumor sections obtained from SM and P44 treated mice by using antibody against HIF-1 α. […] All these observations implicate the significance of P44 peptide in restoring tissue architecture in tumor cells and thus potentiates its role as a tumor regressor.
(§2) FIG. 7. Histopathological changes in B16F1-induced tumors. A, Hematoxylin and eosin staining of tumor sections excised from mice treated with either P44 (upper panel) or SM (lower panel) peptide. […] The images have been recorded at 20× and 40×. B, Immunohistochemistry of paraffin embedded tumor sections from P44 treated as well as, SM treated mice. After antigen unmasking, sections were stained with HIF-1α antibody (middle panel) and detected using Cy-3 conjugated mouse immunoglobulin. Sections were counterstained with DAP1 for nuclear localization (left panel). Right panel corresponds to the merged image.

HIF-1α = assay: Immunohistochemical staining of tumor sections for HIF-1α; format: in vivo, mouse; details: tumors excised from treated mice
Source text: as §1, §2
Immunohistochemical staining of tumor sections: Tumor sections in paraffin-embedded blocks were transferred to poly-L-lysine coated glass slides and air-dried overnight at 37° C. They were dewaxed in xylene (three changes) and […] in graded series of decreasing ethanol concentrations. […] Thereafter, detected using cy-3 fluorescence labeled secondary antibody. […]

[3] = tested on: B16F1 mouse melanoma cells; assay: B16F1 melanoma tumor regression in nude mice; format: in vivo; details: nude mice, 200 μg/mouse thrice a week, 4 weeks
Protocol: P44 peptide: A potent tumor regressor: To test whether the differences in SMAR1 derived peptide-induced activation of p53 translated to differences in drug sensitivity in vivo, B16F1 mouse melanoma cells were subcutaneously grafted into athymic nude mice, and tumor growth together with therapeutic sensitivity was monitored. Once the tumor nodule was established into the mouse, P44 peptide was injected in the tumor localized areas at a physiological dose of 200 μg/mouse thrice a week. The treatment was continued for 4 weeks. In a parallel experiment, either TAT PTD or TAT-SMAR1 RS mutant peptide, SM (FIGS. 6A and B, respectively) was injected in tumor bearing mice to be used as control.
FIG. 6D-F corresponds to the magnified tumor images of FIG. 6A-C, respectively. […] Thus, P44 peptide mimics the function of full-length SMAR1 in drastically reducing the tumor growth.
FIG. 6. Tumor regression by TAT-SMAR1 WT peptide. A, Nude mice were allowed to develop tumors by subcutaneously injecting B 16F1 mouse melanoma cells. Mice with size-matched tumors were then randomized into three treatment groups (five animals per group); TAT PTD alone (panel A), TAT-SMART RS mutant (SM) (panel B) and TAT-SMAR1 WT (P44) (panel C). Panels D, E and F correspond to the magnified images of panels A, B and C, respectively. Mice were treated with either of the peptides at a dose of 200 μg/mice/thrice a week for consecutive 4 weeks. The tumors were then weighed and plotted for each mouse in all the treatment groups (panel G).
Animal model for tumorgenesis: B16F1 mouse melanoma cells in the exponential growth phase were trypsinized (Invitrogen) and washed twice with PBS. Cell number and viability was assessed and cell cultures with viability >90% were used. Tumors were then established in nude mice by subcutaneous injection of 2×10^6 B16F1 cells. Five mice were used in each set of experiments. The mice were maintained under pathogen-free conditions. When the subcutaneous tumor was clearly visible, the TAT-SMAR1 WT (P44) peptide treatment was started. The P44 peptide was subcutaneously injected proximal to the tumor sites at a dose of 200 μg/mouse thrice a week. The treatment was administered for 4 weeks. For control treatment, TAT PTD alone and TAT SMAR1 RS mutant peptide (SM) were injected in the same manner as the P44 peptide.

T1 sequence (P04637 whole entry): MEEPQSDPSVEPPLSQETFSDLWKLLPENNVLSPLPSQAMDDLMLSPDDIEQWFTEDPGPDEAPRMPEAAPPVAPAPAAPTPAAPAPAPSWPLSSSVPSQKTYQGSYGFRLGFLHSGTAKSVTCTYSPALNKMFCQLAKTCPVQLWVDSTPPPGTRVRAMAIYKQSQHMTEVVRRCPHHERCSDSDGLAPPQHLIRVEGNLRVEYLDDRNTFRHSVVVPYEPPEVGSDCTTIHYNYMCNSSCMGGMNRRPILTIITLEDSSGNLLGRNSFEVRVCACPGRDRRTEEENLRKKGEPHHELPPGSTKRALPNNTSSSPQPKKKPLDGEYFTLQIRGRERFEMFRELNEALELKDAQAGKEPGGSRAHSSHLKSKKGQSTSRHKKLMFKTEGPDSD

YGRKKRRQRRR [TAT PTD, reference compound]
phosphorylation of serine-15 residue of p53 [1]: no phosphorylation | tumor vascular architecture (HE staining) [2]: poorly organized vascular architecture and compressed blood vessels | HIF-1α expression in tumor sections (HIF-1α): increased expression of HIF-1α | tumor weight after excision [3]: 1.5 to 3 g

Source: patent publication US8420100B2, “Tumor suppressor activating polypeptides and uses thereof” (Department of Biotechnology, priority 2006, dated 2013)
